Laboratory results as given in PubChem BioAssay (NCI).
Values joined by “and” are separate entries in the source; they are usually repeats but may differ in a detail not shown here. Identical values can stand only once.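 Five concentrations, 48 hours, 96-well plates. GI50 marks 50% less growth. TGI is the concentration that stops growth completely.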

Columns and labels:
Assay in all cases: growth of human tumour cells (NCI), 48 h
SK-MEL-5 melanoma = tested on: SK-MEL-5 melanoma
HCC-2998 colon = tested on: HCC-2998 colon
HOP-62 NSCLC = tested on: HOP-62 NSCLC
SR leukemia = tested on: SR leukemia
SF-295 CNS = tested on: SF-295 CNS
RXF 393 renal = tested on: RXF 393 renal
SK-OV-3 ovarian = tested on: SK-OV-3 ovarian
LOX IMVI melanoma = tested on: LOX IMVI melanoma
ACHN renal = tested on: ACHN renal
OVCAR-5 ovarian = tested on: OVCAR-5 ovarian

| Compound | GI50 (SK-MEL-5 melanoma) [nM] | TGI (SK-MEL-5 melanoma) | GI50 (HCC-2998 colon) [µM] | TGI (HCC-2998 colon) [µM] | GI50 (HOP-62 NSCLC) [nM] | TGI (HOP-62 NSCLC) | GI50 (SR leukemia) [nM] | TGI (SR leukemia) [µM] | GI50 (SF-295 CNS) [nM] | TGI (SF-295 CNS) | GI50 (RXF 393 renal) [nM] | TGI (RXF 393 renal) [µM] | GI50 (SK-OV-3 ovarian) [nM] | TGI (SK-OV-3 ovarian) | GI50 (LOX IMVI melanoma) [nM] | TGI (LOX IMVI melanoma) [µM] | GI50 (ACHN renal) [nM] | TGI (ACHN renal) | GI50 (OVCAR-5 ovarian) [nM] | TGI (OVCAR-5 ovarian) |
| --- | --- | --- | --- | --- | --- | --- | --- | --- | --- | --- | --- | --- | --- | --- | --- | --- | --- | --- | --- | --- |
| O=C(Oc1cccnc1)c1ccsc1Nc1ccnc(C(F)(F)F)c1 | 5260 | 30.1 µM | 11 | 24 | 25000 | > 100 µM | 3740 | 47.1 | 24000 | > 100 µM | 6260 | 34.8 | 4000 | 29.5 µM | 3190 | > 100 | 17700 | 95.8 µM | 4670 | > 100 µM |
| N#CN1CC[C@H](C(=O)Nc2ncc(-c3ccncc3)s2)C1 | 92.5 | 5.58 µM | 0.0844 | 11 | 68.9 | 3.92 µM | < 10 | 4.18 | 226 | > 38.9 µM | 23.8 | 0.242 | 1150 | > 30.9 µM | < 19 | > 100 | 34.8 | > 100 µM | 57.6 | > 77.3 µM |
| COc1ccc(C2[C@@H](Cl)C(=O)N2c2cc(OC)c(OC)c(OC)c2)cc1Cl (stereo not given in full) | 102 | 0.795 µM | 0.41 | 17.6 | 180 | > 100 µM | 55.1 | > 100 | 41.1 | 0.648 µM | 61.5 | 65.5 | 290 | > 100 µM | 163 | 20.8 | 79.8 | 49.1 µM | 369 | > 100 µM |
| COc1ccc2cc(-c3c(-c4ccncc4)nc(-c4ccc(S(C)=O)cc4)n3C)ccc2c1 (stereo not given) | 5580 | > 21.2 µM | 25 | > 25 | > 21100 | > 25 µM | > 25000 | > 25 | > 22400 | > 25 µM | 2780 | > 25 | 10700 | > 25 µM | > 23400 | > 25 | 20200 | > 25 µM | > 25000 | > 25 µM |
| COc1ccc(-c2cc(=O)c3c(OC)c(OC)c(OC)c(OC)c3o2)cc1 |  | > 100 µM |  | > 100 |  | > 100 µM |  | > 100 |  | > 100 µM |  | > 100 |  | > 100 µM |  | > 100 |  | > 100 µM |  | > 100 µM |
| O=C(Nc1cccc(Nc2ncc(Br)c(NCCc3cnc[nH]3)n2)c1)N1CCCC1 |  | 22.1 µM | 9.11 | 24.3 | 2350 | 14.7 µM | 527 | 28 | 3720 | 20.8 µM | 1610 | 9.06 | 4950 | 32.4 µM | 1110 | 7.4 | 11000 | 56 µM | 9290 | 73.1 µM |
| C[C@@H]1O[C@@H](O[C@H]2CC[C@@]3(C)[C@H](CCC4[C@@H]3C(O)C[C@]3(C)[C@@H](c5ccc(=O)oc5)CC[C@]43O)C2)[C@H](O)[C@H](O)[C@H]1O (stereo not given in full) | 5.61 | 0.0107 µM | 0.0075 | 0.0168 | 3.89 | 0.0057 µM | 3.88 | 0.0109 | 6.64 | 0.0291 µM | 6.4 | 0.0194 | 5.02 | 0.00987 µM | 5.19 | 0.0101 | < 3.25 | 0.00803 µM | 5.83 | < 0.0113 µM |
| COC(=O)C(C)(C)N=CN(C)C |  | > 100 µM |  | > 100 |  | > 100 µM |  | > 100 |  | > 100 µM |  | > 100 |  | > 100 µM |  | > 100 |  | > 100 µM |  | > 100 µM |
| c1ccc2c3c([nH]c2c1)C1CCCN1CC3 (stereo not given) |  | > 10 µM |  | > 10 |  | > 10 µM |  | > 10 |  | > 10 µM |  | > 10 |  | > 10 µM |  | > 10 |  | > 10 µM |  | > 10 µM |
| Cc1cccc(NC(=O)c2sc3nc4c(cc3c2N)CN(Cc2ccccc2)CC4)c1C | 213 | > 50 µM | 5.39 | > 50 | 261 | > 50 µM | 94.1 | > 50 | 161 | 41.6 µM | 133 | 2.11 | 216 | > 50 µM | 254 | > 50 | 409 | > 50 µM | 484 | > 50 µM |
| COc1ccc(OC)c(Cn2cc3c(c2)-c2oncc2CC3)c1 | 2610 | 8.99 µM | 4.72 | 38.1 | 4080 | > 100 µM | 1160 | 18.2 | 2430 | 11.1 µM | 2670 | 15.7 | 3130 | > 57.5 µM | 4060 | > 100 | 6070 | > 100 µM | 6080 | > 100 µM |
| CSC(=S)N/N=C(\C)c1cccc(C)n1 |  | 8.56 µM |  | 30.4 |  | 6.98 µM |  | > 65.6 |  | 24.8 µM |  | 13.8 |  | 10.7 µM |  | 15.1 |  | 3.48 µM |  | 86.5 µM |
| Cc1cc(N(CCC#N)CCC#N)ccc1/C=C1N=C(/C=C\c2ccccc2)N(c2ccc(Cl)cc2)C\1=O |  | 17.5 µM |  | > 100 |  | > 63.5 µM |  | > 100 |  | > 100 µM |  | > 100 |  | > 100 µM |  | > 100 |  | > 100 µM |  | > 100 µM |
| COC(=O)c1nc(-c2ccccc2)oc1S(=O)(=O)n1nc(C)cc1N | 15500 | 29.7 µM | 18.2 | 32.2 | 27900 | 84.2 µM | 933 | 3.94 | 29700 | > 100 µM | 11900 | 24.7 | 45500 | > 100 µM | 1510 | 3.34 | 1710 | 3.11 µM | 13800 | 28.8 µM |
| C/C1=C\[C@@H](O)C(=O)/C=C/C=C\c2csc(n2)[C@@H](C)NC(=O)C[C@@]2(CC1)S(=O)SC(=O)[C@]2(C)O (stereo not given in full) |  | 0.0435 µM and 0.0168 µM |  | 0.676 | 280 | 0.374 µM and 1.83 µM | > 100000 |  | 53 | 0.59 µM and 3.73 µM |  | 0.0331 | 181 | 0.472 µM and 2.74 µM |  | 0.0605 | 4.33 | 0.038 µM and 0.0122 µM | 16.9 | 0.699 µM and 0.145 µM |
| Cc1ccc(S(=O)OC2C3CC4CC(C3)CC2C4)cc1 (stereo not given) |  | > 100 µM |  | > 100 |  | > 100 µM |  | > 100 |  | > 100 µM |  | > 100 |  | > 100 µM |  | > 100 |  | > 100 µM |  | > 100 µM |
| CCC1(O)C(=O)OCc2c1cc1n(c2=O)Cc2cc3cc(N)ccc3nc2-1 (stereo not given) |  | 0.0761 µM |  | 1.37 |  | 0.357 µM |  | 0.0122 |  | 0.36 µM | 126 | 1.12 |  | 0.207 µM |  | 0.059 |  | 0.0142 µM |  | 2.94 µM |
| [N-]=[N+]=C1C(=O)C2CC3CC(C2)CC1C3 |  | > 100 µM |  | > 100 |  | > 100 µM |  | > 100 |  | > 100 µM |  | > 100 |  | > 100 µM |  | > 100 |  | > 100 µM |  | > 100 µM |
| CCN1C(=O)N(CC)C2C1NN=c1s/c(=C\c3ccccc3Br)c(=O)n12 (stereo not given) | 31.9 | 0.133 µM | 0.0392 | 4.12 | 48.5 | 20.4 µM | 23 | > 100 | 28.6 | 15.1 µM | 38.9 | 17.4 | 66.7 | > 100 µM | 28.4 | 16.6 | 43.7 | > 61.6 µM | 61 | > 48.7 µM |
